From ChEMBL document CHEMBL1124201, “Optimizing of 2,3-diarylindenes as fluorescent estrogens: variation of the acceptor group, ortho substitution of the 2-ring, and C-1 methylation” (J Med Chem, 1988)

The compounds below were run against Estrogen receptor (Rattus norvegicus) (UniProt P06211+Q62986) (assay: Displacement of [3H]estradiol from estrogen receptor of rat uterine cytosol).
Assay type: protein assay

First: Oc1ccc(C2=C(c3ccccc3C(F)(F)F)Cc3cc(O)ccc32)cc1
Second: Cc1ccccc1C1=C(c2ccc(O)cc2)c2ccc(O)cc2C1
The RBA of the first is higher: 38% for the first, 30% for the second.

First: Oc1ccc(C2=C(c3cccnc3)Cc3cc(O)ccc32)cc1
Second: Oc1ccc(C2=C(c3ccccc3)Cc3cc(O)ccc32)cc1
The RBA of the first is lower: 0.05% for the first, 4.7% for the second.

First: O=[N+]([O-])c1ccc(C2=C(c3ccccc3)c3ccc(O)cc3C2)cc1
Second: Oc1ccc(C2=C(c3ccccc3)c3ccc(O)cc3C2)cc1
The RBA of the first is lower: 0.46% for the first, 28% for the second.

Going from Oc1ccc(C2=C(c3ccc(Br)cc3)Cc3cc(O)ccc32)cc1 to N#Cc1ccc(C2=C(c3ccc(O)cc3)c3ccc(O)cc3C2)cc1, the RBA rises from 0.76% to 1%.

First: O=[N+]([O-])c1ccc(C2=C(c3ccc(O)cc3)c3ccc(O)cc3C2)cc1
Second: O=[N+]([O-])c1cccc(C2=C(c3ccc(O)cc3)c3ccc(O)cc3C2)c1
The RBA of the first is higher: 0.69% for the first, 0.6% for the second.

In the case of CC1C(c2ccccc2)=C(c2ccccc2)c2ccc(O)cc21 (stereo unspecified), the RBA was 12%.
